Laboratory results as given in patent publication US20250332173A1, “COMPOUNDS AND METHODS FOR MODULATING NUCLEIC ACID SPLICING” (REMIX THERAPEUTICS INC., priority 2021, published 2025).
Where two headings read alike, the source gives them in different places.

Tests used:
Assay type in all cases: cell-based, human
[1] = test system: HTT mRNA; test: RT-qPCR splicing assay, HTT canonical junction (CJ) and alternative junction (AJ) mRNA; conditions: Homo sapiens; for AC50: increase in HTT alternative junction (AJ) mRNA, read-out: HTT AJ AC50
How it was run: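 24 h treatment, 37 °C/5% CO2; A673 or K562; 11-pt 3-fold series, top 10 uM final; DMSO ≤0.25%. Cell lysis with DNase I, then 1-step RT-qPCR. Housekeeping normalization: PPIA (A673), GAPDH or GUSB (K562).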

[2] = test system: HTT; test: HiBiT protein abundance assay, HTT HiBiT K562 cell line; conditions: HiBiT K562 cell line, 24 hours, top dose 10 μM; read-out: Effect on protein abundance, HTT (IC50 category)
How it was run: (§1)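 K562 knock-in lines with endogenous HiBiT-tagged target, 10,000 cells/well in IMDM + FBS, treated 24 h at 37° C with 10-point 3-fold dilutions (top 10 μM final; DMSO ≤0.25%). Lytic Nano-Glo HiBiT luminescence normalized to untagged K562 baseline and DMSO controls; IC50 = concentration giving 50% abundance via four-parameter fit.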

[3] = test system: MYB; test: HiBiT protein abundance assay, MYB HiBiT K562 cell line; conditions: HiBiT K562 cell line, 24 hours, top dose 10 μM; read-out: Effect on protein abundance, MYB (IC50 category)
How it was run: as §1

[4] = decrease in HTT canonical junction (CJ) mRNA, RT-qPCR, read-out: HTT CJ IC50
[5] = Table 5 panel, canonical junction qPCR, compound concentration having 50% response in CJ decrease, read-out: HTT IC50 (decrease in CJ mRNA levels)

Row | SMILES | IC50 [1, 4] | AC50 ([1]; RT-qPCR) | IC50 [1, 5] | IC50 [2] | IC50 [3]
1 | CCN1CCC(n2ccc3cc(-c4cc(C)c5nc(C)cn5n4)ccc3c2=O)CC1 [Compound 402, 6-{2,8-dimethylimidazo[1,2-b]pyridazin-6-yl}-2-(1-ethylpiperidin-4-yl)isoquinolin-1-one] | 100 to 1000 nM | 100 to 1000 nM | 100 to 1000 nM | < 100 nM | < 100 nM
2 | Cc1cn2nc(-c3cc(F)c4c(=O)n([C@H]5CCNC6(CC6)C5)ncc4c3)cc(C)c2n1 [Compound 447] | < 100 nM | < 100 nM | < 100 nM | < 100 nM | < 100 nM
3 | Cn1cc2cc(-c3cc(F)c4c(=O)n(C5CCNCC5)ccc4c3)cc(C#N)c2n1 [Compound 394, 5-(8-fluoro-1-oxo-2-(piperidin-4-yl)-1,2-dihydroisoquinolin-6-yl)-2-methyl-2H-indazole-7-carbonitrile] | < 100 nM | < 100 nM | < 100 nM | < 100 nM | < 100 nM
4 | Cn1cc2cc(-n3cnc4cc(NC5CCNCC5)ccc4c3=O)ccc2n1 [Compound 162] | > 10000 nM | > 10000 nM | > 10000 nM | > 10000 nM | > 10000 nM
5 | Cc1cn2nc(-c3ccc4c(=O)n(C5CCCNC5)ccc4c3)cc(C)c2n1 (stereo in doubt) [Compound 411, 6-{2,8-dimethylimidazo[1,2-b]pyridazin-6-yl}-2-[(3R)-piperidin-3-yl]isoquinolin-1-one] | 1000 to 10000 nM | 1000 to 10000 nM | 1000 to 10000 nM | 1000 to 10000 nM | 1000 to 10000 nM
6 | Cc1cn2cc(-c3ccc4c(=O)n([C@H]5CCCNC5)ccc4c3)cc(F)c2n1 [Compound 404, 6-{8-fluoro-2-methylimidazo[1,2-a]pyridin-6-yl}-2-[(3S)-piperidin-3-yl]isoquinolin-1-one] | 1000 to 10000 nM | 1000 to 10000 nM | 1000 to 10000 nM | 1000 to 10000 nM | 100 to 1000 nM
7 | COc1cc(-c2cc(C)c3nc(C)cn3n2)cc2ccn(C3CCNCC3)c(=O)c12 [Compound 399, 6-{2,8-dimethylimidazo[1,2-b]pyridazin-6-yl}-8-methoxy-2-(piperidin-4-yl)isoquinolin-1-one] | 100 to 1000 nM | 100 to 1000 nM | 100 to 1000 nM | 100 to 1000 nM | 100 to 1000 nM
8 | Cc1cn2nc(-c3cc(F)c4c(=O)n([C@H]5CCNC6(CC6)C5)ccc4c3)cc(C)c2n1 (single isomer, unassigned) [Compound 426] | < 100 nM | < 100 nM | < 100 nM | < 100 nM | < 100 nM
9 | Cc1cc(-c2cc(F)c3c(=O)n(C4CCNC5(CC5)C4)ccc3c2)nc2cn(C)nc12 (centres unmarked) [Compound 431] | < 100 nM | < 100 nM | < 100 nM | < 100 nM | < 100 nM
10 | Cc1cn2nc(-c3cc(C)c4c(=O)n(C5CCNC6(CC6)C5)ccc4c3)cc(C)c2n1 (stereo in doubt) [Compound 397, (S)-6-(2,8-dimethylimidazo[1,2-b]pyridazin-6-yl)-8-methyl-2-(4-azaspiro[2.5]octan-7-yl)isoquinolin-1(2H)-one] | < 100 nM | < 100 nM | < 100 nM | < 100 nM | < 100 nM
11 | Cc1cn2nc(-c3cc(F)c4c(=O)n(C5CCN(C)CC5)ccc4c3)cc(C)c2n1 [Compound 400, 6-(2,8-dimethylimidazo[1,2-b]pyridazin-6-yl)-8-fluoro-2-(1-methylpiperidin-4-yl)isoquinolin-1(2H)-one] | < 100 nM | < 100 nM | < 100 nM | < 100 nM | < 100 nM
12 | Cc1cn2nc(-c3cc(O)c4c(=O)n(C5CCNCC5)ccc4c3)cc(C)c2n1 [Compound 391, 6-(2,8-dimethylimidazo[1,2-b]pyridazin-6-yl)-8-hydroxy-2-(piperidin-4-yl)isoquinolin-1(2H)-one] | < 100 nM | < 100 nM | < 100 nM | < 100 nM | < 100 nM
13 | Cc1cn2cc(-c3cc(F)c4c(=O)n(C5CCNC6(CC6)C5)ccc4c3)cc(C)c2n1 (centres unmarked) [Compound 416, 2-{4-azaspiro[2.5]octan-7-yl}-6-{2,8-dimethylimidazo[1,2-a]pyridin-6-yl}-8-fluoroisoquinolin-1-one] | 100 to 1000 nM | 100 to 1000 nM | 100 to 1000 nM | < 100 nM | < 100 nM
